Test results reported in patent US9604975B2, “Indolyl-pyridone derivatives having checkpoint kinase 1 inhibitory activity” (Vernalis (R&D) Ltd., priority 2009, dated 2017).

Experiments:
CHK1 = target: T1, CHK1 (Homo sapiens, UniProt O14757); assay: CHK1 Enzyme Assay (phosphorylation of Chktide peptide, 33P-ATP filter assay); format: biochemical; details: 12.5 nM His-CHK1, 0.01 mM ATP, 40 minutes at 30° C.; read-out: CHK1 Enzyme Activity (IC50 range)
T1 construct: His; purchased Invitrogen
T1 sequence (O14757 1-476): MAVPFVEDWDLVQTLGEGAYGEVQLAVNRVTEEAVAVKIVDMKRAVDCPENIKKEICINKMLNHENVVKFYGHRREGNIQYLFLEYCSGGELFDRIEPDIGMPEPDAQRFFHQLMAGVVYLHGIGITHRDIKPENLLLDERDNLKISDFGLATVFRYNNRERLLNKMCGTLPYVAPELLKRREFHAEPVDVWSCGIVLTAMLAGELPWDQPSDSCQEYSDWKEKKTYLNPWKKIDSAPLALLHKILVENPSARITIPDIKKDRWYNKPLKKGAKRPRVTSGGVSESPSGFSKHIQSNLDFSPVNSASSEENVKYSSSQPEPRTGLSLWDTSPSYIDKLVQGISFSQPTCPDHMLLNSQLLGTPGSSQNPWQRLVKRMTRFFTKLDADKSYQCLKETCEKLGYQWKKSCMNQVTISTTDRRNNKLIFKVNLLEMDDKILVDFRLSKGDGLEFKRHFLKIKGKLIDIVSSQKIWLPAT
Procedure, shortened: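 His-CHK1 (12.5 nM) phosphorylating 14.8 μM Chktide with 0.01 mM ATP plus 33P-γ-ATP, in 50 mM Hepes-NaOH pH 7.5 with 0.1 mg/mL BSA. Incubated with inhibitor for 40 min at 30 °C. Stopped with phosphoric acid; phosphopeptide captured on filter and counted by scintillation.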

HT29 cells = assay: CHK1 Cellular Assay - Gemcitabine EC50 Assay; format: cell-based; details: for EC50: HT29 cells, in the presence of gemcitabine at 10 nM, 72 hours, SRB staining, read-out: CHK1 Cellular Activity (EC50 range)
Description: The gemcitabine EC50 assay was developed as a rapid method for screening CHK1 inhibitors to determine their relative cell activity. This assay utilises a feature of the effect of CHK1 inhibitors on gemcitabine toxicity. In the absence of a CHK1 inhibitor, gemcitabine acts predominantly as an anti-metbolite and therefore induces very little cell death, even at high concentrations. This can be as high as 70-80% survival at concentrations in excess of 1 μM. However, in the presence of a CHK1 inhibitor, the mechanism of action of gemcitabine switches to a more classical cytotoxic mode of action. For example, the fraction of cells surviving can be reduced to around 30% and below. Concentrations of gemcitabine can be selected that in the absence of a CHK1 inhibitor, have no effect on cell survival but in the presence of a CHK1 inhibitor are highly cytotoxic. 10000 HT29 cells were plated per well of a 96 well plate and allowed to attach at 37° C. in a 5% CO2 humidified incubator for 18 hours. CHK1 inhibitors were then titrated in the presence of 10, 15 and 20 nM gemcitabine for 72 hours and the EC50 determined by staining with sulforhodamine B (SRB) and determining the absorbance at 540 nm.

Work on Cc1ccc(Cn2cc(C(=O)Nc3c[nH]c(=O)c(-c4cc5cc(CN6CCCCC6)ccc5[nH]4)c3)cn2)cc1 [Example 38, 1-(4-Methyl-benzyl)-1H-pyrazole-4-carboxylic acid [6-oxo-5-(5-piperidin-1-ylmethyl-1H-indol-2-yl)-1,6-dihydro-pyridin-3-yl]-amide] yielded an IC50 (CHK1) of less than 100 nM and an EC50 (HT29 cells) of 100 to 500 nM.

CN(C)CC(C)(C)Oc1ccc2[nH]c(-c3cc(NC(=O)c4cnn(Cc5ccccc5)c4)c[nH]c3=O)cc2c1 [Example 179, 1-Benzyl-1H-pyrazole-4-carboxylic acid {5-[5-(2-dimethylamino-1,1-dimethyl-ethoxy)-1H-indol-2-yl]-6-oxo-1,6-dihydro-pyridin-3-yl}-amide] was tested, and the IC50 (CHK1) was less than 100 nM and the EC50 (HT29 cells) was less than 100 nM.

C[C@@H]1CN(Cc2ccc3[nH]c(-c4cc(NC(=O)c5cnn(Cc6ccccc6)c5)c[nH]c4=O)cc3c2)C[C@H](C)O1 [Example 71, 1-Benzyl-1H-pyrazole-4-carboxylic acid {5-[5-(cis-2,6-dimethyl-morpholin-4-ylmethyl)-1H-indol-2-yl]-6-oxo-1,6-dihydro-pyridin-3-yl}-amide] showed an IC50 (CHK1) of less than 100 nM and an EC50 (HT29 cells) of less than 100 nM.

In the case of CN(C)CC(C)(C)COc1ccc2[nH]c(-c3cc(NC(=O)c4cnn(Cc5ccccc5)c4)c[nH]c3=O)cc2c1 [Example 120, 1-Benzyl-1H-pyrazole-4-carboxylic acid {5-[5-(3-dimethylamino-2,2-dimethyl-propoxy)-1H-indol-2-yl]-6-oxo-1,6-dihydro-pyridin-3-yl}-amide], the IC50 (CHK1) is reported as less than 100 nM and the EC50 (HT29 cells) is reported as less than 100 nM.

Work on CC1CCN(Cc2ccc3[nH]c(-c4cc(NC(=O)c5cnn(Cc6ccccc6)c5)c[nH]c4=O)cc3c2)CC1 [Example 78, 1-Benzyl-1H-pyrazole-4-carboxylic acid {5-[5-(4-methyl-piperidin-1-ylmethyl)-1H-indol-2-yl]-6-oxo-1,6-dihydro-pyridin-3-yl}-amide] yielded an IC50 (CHK1) of less than 100 nM and an EC50 (HT29 cells) of less than 100 nM.

For C[C@H]1CCCCN1Cc1ccc2[nH]c(-c3cc(NC(=O)c4cnn(Cc5ccccc5)c4)c[nH]c3=O)cc2c1 [Example 171, 1-Benzyl-1H-pyrazole-4-carboxylic acid {5-[5-((S)-2-methyl-piperidin-1-ylmethyl)-1H-indol-2-yl]-6-oxo-1,6-dihydro-pyridin-3-yl}-amide], the IC50 (CHK1) was less than 100 nM and the EC50 (HT29 cells) was less than 100 nM.

For Nc1ccn([C@@H]2O[C@H](CO)[C@@H](O)C2(F)F)c(=O)n1 [gemcitabine, reference compound], the survival (HT29 cells; gemcitabine in the absence of a CHK1 inhibitor, concentrations in excess of 1 μM) was 70-80%.

CC(c1ccccc1)n1cc(C(=O)Nc2c[nH]c(=O)c(-c3cc4cc(CN5CCC(F)CC5)ccc4[nH]3)c2)cn1 (centres unmarked) [Example 87, 1-(1-Phenyl-ethyl)-1H-pyrazole-4-carboxylic acid {5-[5-(4-fluoro-piperidin-1-ylmethyl)-1H-indol-2-yl]-6-oxo-1,6-dihydro-pyridin-3-yl}-amide] showed an IC50 (CHK1) of less than 100 nM and an EC50 (HT29 cells) of less than 100 nM.

C[C@@H]1CN(Cc2ccc3[nH]c(-c4cc(NC(=O)c5cnn([C@H](C)c6ccccc6)c5)c[nH]c4=O)cc3c2)C[C@H](C)O1 [Example 166] gave an IC50 (CHK1) of less than 100 nM and an EC50 (HT29 cells) of less than 100 nM.

CC(C)(COc1ccc2[nH]c(-c3cc(NC(=O)c4cnn(Cc5ccccc5)c4)c[nH]c3=O)cc2c1)CN1CCCC1 [Example 180, 1-Benzyl-1H-pyrazole-4-carboxylic acid {5-[5-(2,2-dimethyl-3-pyrrolidin-1-yl-propoxy)-1H-indol-2-yl]-6-oxo-1,6-dihydro-pyridin-3-yl}-amide] gave an IC50 (CHK1) of less than 100 nM and an EC50 (HT29 cells) of less than 100 nM.

With O=C(Nc1c[nH]c(=O)c(-c2cc3cc(CN4CCCCC4)ccc3[nH]2)c1)c1cnn(Cc2ccccc2)c1 [Example 52, 1-Benzyl-1H-pyrazole-4-carboxylic acid [6-oxo-5-(5-piperidin-1-ylmethyl-1H-indol-2-yl)-1,6-dihydro-pyridin-3-yl]-amide] the IC50 (CHK1) was less than 100 nM and the EC50 (HT29 cells) was less than 100 nM.

In the case of C[C@@H]1CCC[C@H](C)N1Cc1ccc2[nH]c(-c3cc(NC(=O)c4cnn(Cc5ccccc5)c4)c[nH]c3=O)cc2c1 [Example 177, 1-Benzyl-1H-pyrazole-4-carboxylic acid {5-[5-(cis-2,6-dimethyl-piperidin-1-ylmethyl)-1H-indol-2-yl]-6-oxo-1,6-dihydro-pyridin-3-yl}-amide], the IC50 (CHK1) is reported as less than 100 nM and the EC50 (HT29 cells) is reported as less than 100 nM.

In the case of CCN(CC)CC(C)(C)COc1ccc2[nH]c(-c3cc(NC(=O)c4cnn(Cc5ccccc5)c4)c[nH]c3=O)cc2c1 [Example 178, 1-Benzyl-1H-pyrazole-4-carboxylic acid {5-[5-(3-diethylamino-2,2-dimethyl-propoxy)-1H-indol-2-yl]-6-oxo-1,6-dihydro-pyridin-3-yl}-amide], the IC50 (CHK1) is reported as less than 100 nM and the EC50 (HT29 cells) is reported as less than 100 nM.

CCN(CC)CC1(COc2ccc3[nH]c(-c4cc(NC(=O)c5cnn(Cc6ccccc6)c5)c[nH]c4=O)cc3c2)CC1 [Example 186, 1-Benzyl-1H-pyrazole-4-carboxylic acid {5-[5-(1-diethylaminomethyl-cyclopropylmethoxy)-1H-indol-2-yl]-6-oxo-1,6-dihydro-pyridin-3-yl}-amide] gave an IC50 (CHK1) of less than 100 nM and an EC50 (HT29 cells) of less than 100 nM.

For O=C(Nc1c[nH]c(=O)c(-c2cc3ccccc3[nH]2)c1)c1cnn(Cc2ccccc2)c1 [Example 20, 1-Benzyl-1H-pyrazole-4-carboxylic acid [5-(1H-indol-2-yl)-6-oxo-1,6-dihydro-pyridin-3-yl]-amide], the IC50 (CHK1) was less than 100 nM and the EC50 (HT29 cells) was 100 to 500 nM.

For O=C(Nc1c[nH]c(=O)c(-c2cc3cc(CN4CCC(F)CC4)ccc3[nH]2)c1)c1cnn(Cc2ccccc2)c1 [Example 49, 1-Benzyl-1H-pyrazole-4-carboxylic acid {3-[5-(4-fluoro-piperidin-1-ylmethyl)-1H-indol-2-yl]-6-oxo-1,6-dihydro-pyridin-3-yl}-amide], the IC50 (CHK1) was less than 100 nM and the EC50 (HT29 cells) was less than 100 nM.

CC(C)(COc1ccc2[nH]c(-c3cc(NC(=O)c4cnn(Cc5ccccc5)c4)c[nH]c3=O)cc2c1)CN1CCCCC1 [Example 185, 1-Benzyl-1H-pyrazole-4-carboxylic acid {5-[5-(2,2-dimethyl-3-piperidin-1-yl-propoxy)-1H-indol-2-yl]-6-oxo-1,6-dihydro-pyridin-3-yl}-amide] was tested, and the IC50 (CHK1) was less than 100 nM and the EC50 (HT29 cells) was less than 100 nM.

For CCN(Cc1ccc2[nH]c(-c3cc(NC(=O)c4cnn(Cc5ccccc5)c4)c[nH]c3=O)cc2c1)CC(C)(C)CN(C)C [Example 176, 1-Benzyl-1H-pyrazole-4-carboxylic acid [5-(5-{[(3-dimethylamino-2,2-dimethyl-propyl)-ethyl-amino]-methyl}-1H-indol-2-yl)-6-oxo-1,6-dihydro-pyridin-3-yl]-amide], the IC50 (CHK1) was less than 100 nM and the EC50 (HT29 cells) was 100 to 500 nM.

With C[C@@H]1CCCCN1Cc1ccc2[nH]c(-c3cc(NC(=O)c4cnn(Cc5ccccc5)c4)c[nH]c3=O)cc2c1 [Example 173, 1-Benzyl-1H-pyrazole-4-carboxylic acid {5-[5-((R)-2-methyl-piperidin-1-ylmethyl)-1H-indol-2-yl]-6-oxo-1,6-dihydro-pyridin-3-yl}-amide] the IC50 (CHK1) was less than 100 nM and the EC50 (HT29 cells) was less than 100 nM.

For O=C(Nc1c[nH]c(=O)c(-c2cc3cc(OCC4(CN5CCCC5)CC4)ccc3[nH]2)c1)c1cnn(Cc2ccccc2)c1 [Example 187, 1-Benzyl-1H-pyrazole-4-carboxylic acid {6-oxo 5-[5-(1-pyrrolidin-1-ylmethyl-cyclopropylmethoxy)-1H-indol-2-yl]-1,6-dihydro-pyridin-3-yl}-amide], the IC50 (CHK1) was less than 100 nM.
